These results are taken from ChEMBL document CHEMBL1201862, “PubChem BioAssay data set” (2004).

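Cultured in 96-well plates, cells were exposed to test compound for 48 hours across five concentrations. GI50 marks 50% less growth.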 Activity calls are given as the source filed them. Rule as the data show it: active = GI50 up to about 1.1 µM and inactive = higher.

Test in all cases: NCI-60 cell line screen, 48 h
Assay [1] has as its system UO-31.
For assay [2], the system named is Malme-3M.
Assay [3] has as its system SK-OV-3.
The subject of assay [4] is HT-29.
The test system of assay [5] is UACC-257.
The test system of assay [6] is SN12C.
The subject of assay [7] is HOP-62.
Assay [8] relates to HCT-15.
Assay [9] relates to SF-295.
For assay [10], the system named is OVCAR-8.
Assay [11] has as its system OVCAR-5.
The subject of assay [12] is A498.
Assay [13] deals with TK-10.
In assay [14] the test system is MOLT-4.
In assay [15] the test system is NCI-H23.
In assay [16] the test system is 786-0.
Assay [17] has as its system IGROV-1.
Assay [18] deals with SW-620.

Consider `CC(C)(C)c1cc2c3c(c1)c(=O)c1cccc4c(O)c5cccc(c2=O)c5c-3c41`, for which the GI50 is > 100 µM (inactive) in [1]; > 100 µM (inactive) in assay [2]; > 100 µM (inactive) in [3]; 27.7 µM (inactive) in assay [4]; > 100 µM (inactive) in [5]; > 100 µM (inactive) in assay [6]. In addition, the GI50 was 47 µM (inactive) in assay [7]; 48.5 µM in assay [8]; 60.1 µM (inactive) in assay [9]; > 100 µM (inactive) in assay [10]; 92.5 µM (inactive) in assay [11]; 99.1 µM (inactive) in [12]. Further, the GI50 in assay [13] was > 100 µM (inactive); in [14], 38.1 µM (inactive); in [15], 68.4 µM (inactive); in assay [16] it was 84.7 µM (inactive); in assay [17], > 100 µM (inactive); in assay [18] it was > 100 µM (inactive).
Consider `CC(=O)OCC1OC(n2ccc(=O)[nH]c2=O)C(OC(C)=O)C(OC(C)=O)C1OC(C)=O` (configuration not stated), for which the GI50 in assay [1], in [2], in [3], in assay [4], in assay [5] and in assay [6] was > 100 µM (inactive) in each case. In addition, the GI50 was > 100 µM (inactive) in [7]; greater than 100 µM in [8]; > 100 µM (inactive) in assay [9]; > 100 µM (inactive) in [10]; > 100 µM (inactive) in assay [11]; > 100 µM (inactive) in [12]. Besides, the GI50 is > 100 µM (inactive) in assay [13]; > 10 µM (inactive) in [14]; > 100 µM (inactive) in [15]; > 100 µM (inactive) in assay [16]; > 100 µM (inactive) in [17]; > 100 µM (inactive) in assay [18].
On to `CCOc1ccc(NC(=O)CC2C(=O)Nc3ccccc3S2(=O)=O)cc1` (configuration not stated), for which the GI50 in assay [1] was > 100 µM (inactive); in [2], > 100 µM (inactive); in [4], > 100 µM (inactive); in assay [5] it was > 100 µM (inactive); in [6], 53.1 µM (inactive); in [7], 41.1 µM (inactive). In addition, the GI50 in assay [8] is greater than 100 µM; in assay [9], 49.4 µM (inactive); in [10], 39.4 µM (inactive); in [11], > 100 µM (inactive); in assay [12], > 100 µM (inactive); in assay [13], > 100 µM (inactive). For the same compound, the GI50 is > 100 µM (inactive) in assay [14]; > 100 µM (inactive) in assay [15]; 33.7 µM (inactive) in assay [16]; > 100 µM (inactive) in [17]; > 100 µM (inactive) in assay [18].
As for `COCCOc1cc(C)cc(/C=C(C)/C=C/C2=C(C)CCCC2(C)C)n1`, the GI50 in assay [1] was > 100 µM (inactive); in assay [2], 38.3 µM (inactive); in assay [3], > 100 µM (inactive); in [4], 28.6 µM (inactive); in assay [5], 33.2 µM (inactive); in [6], > 100 µM (inactive). Further, the GI50 in assay [7] is > 100 µM (inactive); in assay [9], > 100 µM (inactive); in assay [10] it was 60.7 µM (inactive); in assay [11], > 100 µM (inactive); in assay [12], > 100 µM (inactive); in assay [13], > 100 µM (inactive). The GI50 in assay [14] is 13.3 µM (inactive); in [15], 58.9 µM (inactive); in assay [16], > 100 µM (inactive); in assay [17] it was > 100 µM (inactive); in assay [18], 59.7 µM (inactive).
With `COc1ccc(/C=C/C(=O)c2sc(NC(=S)NC(=O)c3ccccc3F)nc2C)cc1OC`, the GI50 in assay [1] was 37.3 µM (inactive); in [2], > 100 µM (inactive); in [3], > 100 µM (inactive); in [6], > 100 µM (inactive); in assay [7] it was > 100 µM (inactive); in [8], greater than 100 µM. Besides, the GI50 is > 100 µM (inactive) in assay [9]; > 100 µM (inactive) in assay [10]; > 100 µM (inactive) in [11]; > 100 µM (inactive) in assay [12]; > 100 µM (inactive) in assay [13]; 65.6 µM (inactive) in [14]. In addition, the GI50 in assay [15], in assay [16], in assay [17] and in assay [18] was > 100 µM (inactive) each time.
`CC(=O)NC1=C(NCCO)C(=O)c2ccccc2C1=O`: the GI50 in assay [1] is > 50 µM (inactive); in assay [2], 12.8 µM (inactive); in assay [3], > 50 µM (inactive); in [4], > 50 µM (inactive); in assay [5], > 50 µM (inactive); in assay [6], > 50 µM (inactive). In addition, the GI50 in [7] is > 50 µM (inactive); in assay [8], greater than 50 µM; in assay [9], > 50 µM (inactive); in [10], > 50 µM (inactive); in assay [13], > 50 µM (inactive); in [14], > 50 µM (inactive). In addition, the GI50 in [15], in assay [16], in assay [17] and in assay [18] was > 50 µM (inactive) in each case.
On to `[N-]=[N+]=Nc1ccc(S(=O)(=O)Oc2cc(OS(=O)(=O)c3ccc(N=[N+]=[N-])cc3)cc(OS(=O)(=O)c3ccc(N=[N+]=[N-])cc3)c2)cc1`, for which the GI50 in assay [1] was > 100 µM (inactive); in assay [2] it was > 100 µM (inactive); in assay [4], > 100 µM (inactive); in assay [5], > 100 µM (inactive); in assay [6], > 10 µM (inactive); in assay [7] it was > 100 µM (inactive). For the same compound, the GI50 in assay [8] was greater than 100 µM; in assay [9], > 100 µM (inactive); in assay [10], > 10 µM (inactive); in assay [11], > 100 µM (inactive); in assay [12] it was > 100 µM (inactive); in [13], > 100 µM (inactive). The GI50 in assay [14] is > 100 µM (inactive); in assay [15], > 100 µM (inactive); in assay [16], > 100 µM (inactive); in assay [17], > 100 µM (inactive); in [18], > 10 µM (inactive).
On to `C=C1CC2(CCS(=O)(=O)c3ccccc32)OC1=O` (configuration not stated), for which the GI50 in assay [1] was 13.2 µM (inactive); in assay [2], 12.4 µM (inactive); in assay [3], 17.6 µM (inactive); in [4] it was 12.2 µM (inactive); in [5], 14.5 µM (inactive); in [7] it was 18.3 µM (inactive). The GI50 in assay [8] was 11.9 µM; in [9], 21.1 µM (inactive); in assay [11] it was 14.3 µM (inactive); in [12] it was 17.3 µM (inactive); in [13] it was 12.9 µM (inactive); in assay [14], 3.49 µM (inactive). In addition, the GI50 in [15] was 12 µM (inactive); in assay [16], 4.32 µM (inactive); in assay [17] it was 16.6 µM (inactive); in assay [18] it was 3.01 µM (inactive).
Take `C=C[C@H]1C=Cc2c(OC)cccc2[C@@H]1COP1(=S)NC(C)C(c2ccccc2)O1` (some centres not stated): the GI50 in [3] was > 100 µM (inactive); in assay [4], 79.6 µM (inactive); in assay [6], > 100 µM (inactive); in assay [7] it was > 100 µM (inactive); in [9] it was > 100 µM (inactive); in [10], 81.5 µM (inactive). Moreover, the GI50 in [13] was > 100 µM (inactive); in [14], 33.9 µM (inactive); in assay [15] it was 50.1 µM (inactive); in assay [16] it was > 100 µM (inactive); in assay [17], > 100 µM (inactive); in [18] it was > 100 µM (inactive).
Consider `C[C@]12CCC(=O)C=C1CC[C@@H]1C2CC[C@]2(C)Nc3c(cnn3-c3ccccc3)CC12` (some centres not stated), for which the GI50 in assay [1], in [2], in [3], in assay [4], in assay [5] and in [7] was > 100 µM (inactive) each time. The GI50 in assay [8] is greater than 100 µM; in assay [9], > 10 µM (inactive); in [10] it was > 100 µM (inactive); in assay [11], > 100 µM (inactive); in assay [12], > 100 µM (inactive); in assay [13], > 100 µM (inactive). For the same compound, the GI50 in [14], in assay [15], in assay [16], in assay [17] and in assay [18] was > 100 µM (inactive) in each case.
Regarding `COc1nc(C(=O)O)c(Cl)c(OC)c1Cl`, the GI50 in assay [1], in assay [2], in [3], in [4], in assay [5] and in assay [6] was > 100 µM (inactive) each time. Also, the GI50 in assay [7], in assay [9], in assay [10], in assay [11], in [12] and in [13] was > 100 µM (inactive) each time. Further, the GI50 in assay [14], in [15], in [16], in assay [17] and in [18] was > 100 µM (inactive) in each case.
Take `CCOC(=O)C(=O)Nc1ccccc1OCC`: the GI50 is 92.9 µM (inactive) in assay [1]; > 100 µM (inactive) in [2]; > 100 µM (inactive) in assay [3]; > 100 µM (inactive) in assay [4]; > 100 µM (inactive) in assay [5]; > 100 µM (inactive) in assay [6]. Besides, the GI50 in assay [7], in assay [9], in assay [10], in assay [11], in assay [13] and in assay [14] was > 100 µM (inactive) in each case. The GI50 in assay [15], in assay [16], in assay [17] and in assay [18] was > 100 µM (inactive) each time.
